Experimental findings from US10413632B2, “Cement products and methods of making and using the same” (Pioneer Surgical Technology, Inc., priority 2007, dated 2019) are described below.

The text on the data set:
The side chain amino groups of certain amino acid can serve as nucleophiles for the Michael addition to enones. Generally, amino acids are flaky or crystalline solids at room temperature, thus, they should be dissolved in a liquid to effectively participate in the set reaction.

`N[C@@H](CS)C(=O)O` [CYS, L-cysteine]: the “solubility (w/w) in DAB” value was found to be 19.5% and the “solubility (w/w) in PEI” value is 18.2%.
Consider `Nc1cc(O)nc(N)n1` [DAHP, 2,4-diamino-6-hydroxypyrimidine], for which the “solubility (w/w) in PEI” value was 13.8%.
Take `Nc1nc(N)c2nc[nH]c2n1` [DAP, diaminopurine]: the “solubility (w/w) in PEI” value is listed as 18.8%.
For the compound `NCCCC[C@H](N)C(=O)O` [LYS, L-Lysine], the “solubility (w/w) in DAB” value is 16.1%.
As to `N[C@@H](Cc1ccccc1)C(=O)O` [PHE, L-phenylalanine], the “solubility (w/w) in DAB” value is recorded as 28% and the “solubility (w/w) in PEI” value is 61.24%.
In the case of `N[C@@H](Cc1c[nH]c2ccccc12)C(=O)O` [TRP, L-Tryptophan], the “solubility (w/w) in DAB” value came to 29.4% and the “solubility (w/w) in PEI” value was 46.46%.
